Test results as given in PMC10119930, “Dual Molecules Targeting 5-HT6 and GABA-A Receptors as a New Approach to Combat Depression Associated with Neuroinflammation” (ACS Chemical Neuroscience, 2023).

What was measured:
[1] = Parallel artificial membrane permeability assay (PAMPA); assay type: in vitro ADME; details: tested at 10^–5 M, PAMPA Plate System Gentest
Protocol: To estimate the passive transport through cell membranes, we used specialized PAMPA Plate System Gentest acquired from Corning (Tewksbury, MA, USA). The assay was performed as described in the manufacturer’s protocol. The quantitative measurements of tested molecules in apical and basolateral wells were conducted using LC/MS (Waters ACQUITY TQD system with the TQ detector, Milford, USA) and a specific internal standard. The Pe permeability coefficient was calculated rendering the formulas described previously[47],[47] and compared to the reference compound sulpiride.

[2] = biological target: muscimol site of the GABA-A receptor; assay: Radioligand binding assay for GABA-A receptor ([3H]muscimol displacement, rat brain homogenate); details: competitive replacement of [3H]muscimol; ±S.E.M.
Protocol: The study was acquired according to the earlier protocols.[39] The rats’ brains were homogenized and prepared accurately according to the previous protocol.[39] On the day of the study, brain homogenates were thawed at room temperature and “diluted” in 20 volumes of ice-cold 50 mM Tris-HCl buffer (pH 7.4) and centrifuged (20.000g, 30 min, 0–4 °C). The assay was performed directly on 96-well microplates, which contained 50 mM Tris-HCl buffer (pH 7.4) in a total volume of 300 μL. Reaction mix included 240 μL of the brain tissue suspension, 30 μL of [^3H]-muscimol, and 30 μL solution of tested compounds (administrated at various concentrations: 10^–10–10^–5 M). […] The 96-well microplates containing the reaction mix were incubated for 10 min at 0 °C, followed by rapid filtration over glass fiber filters FilterMate B (PerkinElmer, USA) using the Harvester-96 MACH III FM (Tomtec, USA). The filter mats were dried using a microwave and then placed inside a plastic bag (PerkinElmer, USA). After that, they were soaked in 10 mL of Ultima Gold MV liquid scintillation cocktail (PerkinElmer, USA). […] Ki values were estimated according to the Cheng and Prusoff equation. The study was performed in duplicates. The statistical analysis was performed using (GraphPad Prism, version 4.0, San Diego, CA, USA).

[3] = test system: female Wistar rats; assay: Forced swim test in rats; assay type: in vivo, rat
Protocol: Naïve female Wistar rats (weighing 180–200 g) were used in the study. The animals were housed in groups of three to four in standard Makrolon cages (37 cm × 21 cm × 15 cm) under strictly controlled laboratory conditions (ambient temperature 21–24 °C, relative humidity 45–65%) with a 12/12 h light–dark regime (light on at 6:00 a.m. and off at 6:00 p.m.). Animals had unrestricted access to tap water and food (typical pellets). Prior the experiment the animals were randomly appointed to the group. The behavioral studies were accomplished between 8:00 a.m. and 5:00 p.m. with the researcher blind to the study. The experiments were performed according to protocols approved by the Local Ethical Committee in Krakow (Approval Number 147/2018), Poland. Housing and experimental procedures were conducted under the European Union Directive of September 22, 2010 (2010/63/EU) and Polish legislation regarding animal studies. All efforts were made to minimize animal suffering and the number of animals used in the study.
Vortioxetine (Sigma, Germany) and the tested compounds (16 and 6) were dissolved in 10% cyclodextrin and administered ip 30 min before the test or during 14 consecutive days, with the last injection 60 min before the test. 10% cyclodextrin was administrated to control group.
A modified forced swim test was carried out according to Detke et al.[50],[51] First, the animals were individually placed inside Plexiglas cylinders, which were 40 cm high and 18 cm in diameter, filled with water at a temperature of 23–25 °C for 15 min. Afterward, the rats were transferred to a Plexiglas box and kept under a 60 W bulb for 30 min to dry. The day after, exactly 24 h later, the rats were once again placed in the cylinder, and their duration of immobility, swimming, and climbing was observed and recorded during a 5 min. The swimming behavior involved energetic movements such as horizontal swimming around the cylinder, while climbing activity referred to upward movements of the forepaws along the swim chamber’s side. Immobility was recorded when the rat only made necessary movements to keep its head above the water. For each test, a fresh water was provided. Open field test in rats: The test was conducted as previously reported by our research group.[52] The test was performed in a darkened room employing the Motor Monitor System (Campden Instruments, Ltd., U.K.). The system was equipped with two SmartFrame Open Field stations, each measuring 40 cm × 40 cm × 38 cm and consisting of 16 × 16 beams. These stations were placed inside sound-attenuating chambers and connected to a PC software using […]. The animals, belonging to either the vehicle-injected or drug-injected group, were individually positioned at the center of the station. The Motor Monitor System, which was automated, recorded the animal’s ambulation in both the X and Y axes, as well as the number of rearing and peeping episodes. Additionally, the total distance traveled by each animal during the 5 min test period was also recorded. Statistical analysis: Results are presented as the mean ± SEM values. They were estimated using one-way analysis of variance (ANOVA), followed by Newman–Keuls post hoc or unpaired two-tailed Student t test. Statistical significance was considered when p < 0.05 for differences between groups.

[4] = biological target: 5-HT6 receptor (Homo sapiens, UniProt P50406); assay: Functional assay for 5-HT6 receptor, antagonist mode (aequorin, CHO-K1 cells); assay type: cell-based; set-up: expressed in transfected cells; host or cells: CHO-K1 (co-expressing mitochondrially targeted aequorin and G protein α16); details: ±S.E.M., read-out: 5-HT6 R KB
Chain of 5-HT6 receptor (P50406 whole entry): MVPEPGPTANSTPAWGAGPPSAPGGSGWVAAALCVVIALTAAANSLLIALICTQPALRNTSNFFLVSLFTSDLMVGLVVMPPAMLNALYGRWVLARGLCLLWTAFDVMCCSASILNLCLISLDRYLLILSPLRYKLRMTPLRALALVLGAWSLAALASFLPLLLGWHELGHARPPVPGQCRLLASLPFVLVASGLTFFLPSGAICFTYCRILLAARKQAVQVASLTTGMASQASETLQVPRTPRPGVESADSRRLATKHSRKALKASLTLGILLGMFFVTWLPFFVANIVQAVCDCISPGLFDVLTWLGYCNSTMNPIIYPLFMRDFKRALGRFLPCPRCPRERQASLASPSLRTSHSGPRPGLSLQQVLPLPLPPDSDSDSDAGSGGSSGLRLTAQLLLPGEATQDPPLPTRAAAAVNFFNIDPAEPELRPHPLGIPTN
Protocol: The studies were acquired according to previous protocols.[41] All the examined compounds (novel and the reference) were dissolved in DMSO (1 mM) and diluted accordingly using the assay buffer, directly in 96-well microplate. The recombinant CHO-K1 cells expressing human GPCR, mitochondrially targeted aequorin, and the promiscuous G protein α16 specific for 5-HT6 were used for the functional assay. The cells were thawed and suspended in the appropriate buffer containing DMEM/HAM’s F12 with 0.1% protease free BSA and were then centrifuged. After adding coelenterazine h to a final concentration of 5 μM, the cell pellet was resuspended in the buffer. The cell suspension was incubated at 16 °C for 16 h while being protected from light, gently shaken, and diluted with assay buffer to a concentration of 5000 cells/mL. Following that, 50 μL of the cell suspension was introduced to preloaded white opaque 96-well microplates containing the tested molecules. This was done using the automatic injectors integrated into the radiometric and luminescence plate counter MicroBeta2 LumiJET (PerkinElmer, USA). The light emission resulting from calcium mobilization was monitored for a duration of 60 s. For examination of the antagonistic properties of tested molecule, following 30 min of incubation, the reference agonist was administrated and the light emission was detected.

[5] = acute, 3 mg/kg ip 30 min before test

Question: For `Cc1c(OCc2ccccc2)cccc1N1CCN(CCOC(=O)CCCN)CC1.Cl.Cl` [Compound 16, 1-(2-((4-Ammoniobutanoyl)oxy)ethyl)-4-(3-(benzyloxy)-2-methylphenyl)piperazin-1-ium Dichloride], which Papp [1] is on record?
Answer: The Papp was 6.24 ×10⁻⁶ cm/s.

Question: What about the Ki [2] of the same compound?
Answer: Its Ki is 147 ± 12.7 nM.

Question: What about the duration of swimming [3, 5] of the same compound?
Answer: Its duration of swimming is “without affecting the duration of swimming”.

Question: And the “increase of climbing behaviors vs control group” value [3, 5]?
Answer: Its value is 336.5%.

Question: What about the “reduction of immobility time vs control group” value [3, 5] of the same compound?
Answer: Its value is 31.9%.

Question: And the “decrease of immobility time vs vehicle-treated group” value ([3]; subchronic, 3 mg/kg ip for 14 days, test 60 min after last injection)?
Answer: Its value is 22.9%.

Question: What about the Kb [4] of the same compound?
Answer: The Kb was 11.9 ± 0.1 nM.
